Data set [1] relates to M. bovis BCG Pasteur. Put plainly: microbe, parasite or virus in culture. In kind it is cell-based. The conditions noted are these: for MIC: Mycobacterium tuberculosis variant bovis BCG, BCG; for MIC M. bovis BCG: SPOTi, 2 weeks at 37°C.
Data set [2] has as its system murine macrophage cell line RAW264.7. Put plainly: Eukaryotic cell toxicity assay, RAW264.7. Format: cell-based. The conditions noted are these: Mus musculus, read-out: GIC50 RAW264.7.
Data set [3] addresses MurE (Rv2158c) protein of M. tuberculosis H37Rv (Mycobacterium tuberculosis, UniProt P9WJL3). Put plainly: Mtb-MurE HPLC inhibition assay. Format: biochemical. The settings on record: for IC50: HPLC assay, 37°C 30 min.
For data set [4], the system named is M. aurum. Put plainly: SPOTi assay, M. aurum. In kind it is cell-based, Mycobacterium aurum. The settings on record: for MIC: Mycolicibacterium aurum.
For data set [5], the system named is M. smegmatis mc^2155. Put plainly: SPOTi assay, M. smegmatis. Format: cell-based, Mycobacterium smegmatis. The settings on record: for MIC: Mycolicibacterium smegmatis, MC^2155.
Data set [6] relates to R. equi RHA1. In words: SPOTi assay, R. equi RHA1. The settings on record: Rhodococcus (subgen. Prescottella) equi, RHA1, LB, 30°C 48 h. Format: cell-based, Rhodococcus equi.
The test system of data set [7] is E. coli K12. In words: SPOTi assay, E. coli. Format: cell-based, Escherichia coli. The conditions noted are these: Escherichia coli, K12, LB, 37°C overnight.
Data set [8] relates to P. putida. Put plainly: SPOTi assay, P. putida. The settings on record: Pseudomonas putida, LB, 37°C overnight. Format: cell-based, Pseudomonas putida.
The subject of data set [9] is M. tuberculosis H37Rv. In words: SPOTi growth inhibition assay, M. tuberculosis H37Rv. Format: cell-based. The settings on record: for MIC: Mycobacterium tuberculosis, H37RV.
In data set [10] the test system is M. bovis BCG. In kind it is cell-based. The settings on record: M. bovis BCG treated at 4 × MIC for 48 h (D-cycloserine 100 mg/L, 39 160 mg/L); 100 cells.
Data set [11] concerns murine macrophage cell line RAW264.7. Further details: method as in Gupta and Bhakta.[27]. The settings on record: ref Gupta and Bhakta.[27]; cited from earlier work.
Data set [12] addresses T1, CYP 1A2 (Homo sapiens, UniProt P05177).
T1 construct: purchased; host or cells: baculosomes (insect-cell microsomes; own knowledge)
T1 sequence (P05177 1-516): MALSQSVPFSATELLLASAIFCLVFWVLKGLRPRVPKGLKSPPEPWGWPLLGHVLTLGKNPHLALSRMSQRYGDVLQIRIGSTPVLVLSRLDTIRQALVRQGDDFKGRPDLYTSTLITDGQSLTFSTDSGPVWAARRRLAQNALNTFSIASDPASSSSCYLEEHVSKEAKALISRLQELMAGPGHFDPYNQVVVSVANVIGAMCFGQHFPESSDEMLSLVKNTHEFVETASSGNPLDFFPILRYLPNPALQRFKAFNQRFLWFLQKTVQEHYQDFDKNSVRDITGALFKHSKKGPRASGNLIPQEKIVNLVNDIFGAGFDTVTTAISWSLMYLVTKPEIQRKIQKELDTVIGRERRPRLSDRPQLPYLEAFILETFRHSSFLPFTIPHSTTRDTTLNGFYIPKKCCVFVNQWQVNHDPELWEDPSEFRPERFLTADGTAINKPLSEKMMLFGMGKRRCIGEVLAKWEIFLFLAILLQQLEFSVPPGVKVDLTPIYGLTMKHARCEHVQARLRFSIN
Put plainly: CYP450 inhibition assay, CYP 1A2. In kind it is in vitro ADME. The conditions noted are these: CYP baculosomes with recombinant human CYP1A2, probe fluorogenic substrate (not named); human recombinant enzymes; read-out: Mean % inhibtion CYP 1A2. Further details: dose or concentration left out as unconfirmed. How it is done: (§1) The compounds originally dissolved in DMSO were added to PBS to give a resulting concentration of […]. CYP baculosomes containing cDNA for a single human P450 isozyme, the fluorogenic substrate and the NADPH were added to the test solution. The reaction was incubated at 37°C for at least 1 h. Fluorogenic substrates metabolized by CYP enzymes result in highly fluorescent products in aqueous solution. The inhibition of CYP prevents this metabolism, which corresponds to a decrease in the fluorescence signal. The fluorescence was measured on a plate reader.

The target in data set [13] is T2, CYP 2C9 (Homo sapiens, UniProt P11712).
T2 construct: purchased; host or cells: baculosomes (insect-cell microsomes; own knowledge)
T2 sequence (P11712 whole entry): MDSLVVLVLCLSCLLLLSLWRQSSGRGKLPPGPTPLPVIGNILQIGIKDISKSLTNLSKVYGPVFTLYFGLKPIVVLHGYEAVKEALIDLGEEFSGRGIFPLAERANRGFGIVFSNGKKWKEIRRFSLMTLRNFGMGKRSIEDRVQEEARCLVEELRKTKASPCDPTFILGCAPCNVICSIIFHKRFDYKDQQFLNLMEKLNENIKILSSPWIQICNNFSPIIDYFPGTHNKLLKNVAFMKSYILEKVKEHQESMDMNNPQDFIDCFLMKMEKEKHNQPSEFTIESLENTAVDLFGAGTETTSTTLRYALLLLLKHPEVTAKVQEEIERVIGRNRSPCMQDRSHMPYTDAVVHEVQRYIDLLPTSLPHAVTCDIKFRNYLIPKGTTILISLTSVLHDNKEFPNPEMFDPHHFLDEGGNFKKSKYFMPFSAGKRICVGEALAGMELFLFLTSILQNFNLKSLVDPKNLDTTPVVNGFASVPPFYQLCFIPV
Put plainly: CYP450 inhibition assay, CYP 2C9. In kind it is in vitro ADME. Further details: dose or concentration left out as unconfirmed. The conditions noted are these: CYP baculosomes with recombinant human CYP2C9, probe fluorogenic substrate (not named); human recombinant enzymes; read-out: Mean % inhibtion CYP 2C9. How it is done: as §1

For data set [14], the target named is T3, CYP 2C19 (Homo sapiens, UniProt P33261).
T3 construct: purchased; host or cells: baculosomes (insect-cell microsomes; own knowledge)
T3 sequence (P33261 whole entry): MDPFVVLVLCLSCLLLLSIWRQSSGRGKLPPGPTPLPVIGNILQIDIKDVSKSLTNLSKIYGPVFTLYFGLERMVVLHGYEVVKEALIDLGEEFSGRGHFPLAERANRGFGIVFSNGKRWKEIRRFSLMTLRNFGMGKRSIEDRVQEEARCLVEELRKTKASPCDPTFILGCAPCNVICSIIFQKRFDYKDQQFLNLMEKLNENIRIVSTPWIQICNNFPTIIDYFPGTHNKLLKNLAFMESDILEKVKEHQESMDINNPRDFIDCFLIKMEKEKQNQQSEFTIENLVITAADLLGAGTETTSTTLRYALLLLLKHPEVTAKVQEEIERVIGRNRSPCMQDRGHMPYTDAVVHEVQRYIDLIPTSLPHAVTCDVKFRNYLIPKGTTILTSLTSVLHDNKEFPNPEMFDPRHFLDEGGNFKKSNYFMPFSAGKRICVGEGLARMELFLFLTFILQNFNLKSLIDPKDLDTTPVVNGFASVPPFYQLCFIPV
In words: CYP450 inhibition assay, CYP 2C19. Format: in vitro ADME. Further details: dose or concentration left out as unconfirmed. The settings on record: CYP baculosomes with recombinant human CYP2C19, probe fluorogenic substrate (not named); human recombinant enzymes; read-out: Mean % inhibtion CYP 2C19. How it is done: as §1

In data set [15] the target is T4, CYP 2D6 (Homo sapiens, UniProt P10635).
T4 construct: purchased; host or cells: baculosomes (insect-cell microsomes; own knowledge)
T4 sequence (P10635 whole entry): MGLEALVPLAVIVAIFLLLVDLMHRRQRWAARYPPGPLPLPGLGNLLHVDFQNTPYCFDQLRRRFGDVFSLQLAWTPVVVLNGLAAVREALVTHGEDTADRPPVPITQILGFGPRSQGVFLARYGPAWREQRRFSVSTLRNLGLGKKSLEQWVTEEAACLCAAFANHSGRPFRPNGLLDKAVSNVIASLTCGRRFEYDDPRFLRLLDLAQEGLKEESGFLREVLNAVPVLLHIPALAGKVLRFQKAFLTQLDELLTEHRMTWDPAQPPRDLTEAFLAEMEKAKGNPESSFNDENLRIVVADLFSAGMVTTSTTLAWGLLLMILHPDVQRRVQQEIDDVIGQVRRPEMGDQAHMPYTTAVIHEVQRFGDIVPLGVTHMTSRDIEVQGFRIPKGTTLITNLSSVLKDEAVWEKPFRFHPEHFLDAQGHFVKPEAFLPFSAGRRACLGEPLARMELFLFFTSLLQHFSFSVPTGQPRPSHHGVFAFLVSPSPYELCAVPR
In words: CYP450 inhibition assay, CYP 2D6. In kind it is in vitro ADME. Further details: dose or concentration left out as unconfirmed. The settings on record: CYP baculosomes with recombinant human CYP2D6, probe fluorogenic substrate (not named); human recombinant enzymes; read-out: Mean % inhibtion CYP 2D6. How it is done: as §1

Data set [16] addresses T5, CYP 3A4 (Homo sapiens, UniProt P08684).
T5 construct: purchased; host or cells: baculosomes (insect-cell microsomes; own knowledge)
In words: CYP450 inhibition assay, CYP 3A4. In kind it is in vitro ADME. More on the design: dose or concentration left out as unconfirmed. The conditions noted are these: CYP baculosomes with recombinant human CYP3A4, probe fluorogenic substrate (not named); human recombinant enzymes; read-out: Mean % inhibtion CYP 3A4. As for the experimental part:
as §1

The mark [17] stands for this setting: 336 h, read-out: MIC M. bovis BCG, SPOTi, 2 weeks at 37°C.
The mark [18] stands for this setting: read-out: MIC M. bovis BCG, SPOTi, value in square brackets.
[19] abbreviates: RAW264.7, value in square brackets.
Setting [20] is: murine macrophage cell line RAW264.7.
[21] abbreviates: SPOTi, value in square brackets, read-out: MIC M. tuberculosis H37Rv.
The mark [22] stands for this setting: 336 h, SPOTi, 2 weeks at 37°C, read-out: MIC M. tuberculosis H37Rv.

≈ marks a conversion by molar mass, not a printed value. Where two headings read alike, the source gives them in different places. Marks after values point to notes of the source that are not given here.

Here are results for eight compounds from PMC4498294, “Tetrahydroisoquinolines affect the whole-cell phenotype of Mycobacterium tuberculosis by inhibiting the ATP-dependent MurE ligase” (Journal of Antimicrobial Chemotherapy, 2015).

MurE (Rv2158c) protein of M. tuberculosis H37Rv, sequence (P9WJL3 whole entry, looked up): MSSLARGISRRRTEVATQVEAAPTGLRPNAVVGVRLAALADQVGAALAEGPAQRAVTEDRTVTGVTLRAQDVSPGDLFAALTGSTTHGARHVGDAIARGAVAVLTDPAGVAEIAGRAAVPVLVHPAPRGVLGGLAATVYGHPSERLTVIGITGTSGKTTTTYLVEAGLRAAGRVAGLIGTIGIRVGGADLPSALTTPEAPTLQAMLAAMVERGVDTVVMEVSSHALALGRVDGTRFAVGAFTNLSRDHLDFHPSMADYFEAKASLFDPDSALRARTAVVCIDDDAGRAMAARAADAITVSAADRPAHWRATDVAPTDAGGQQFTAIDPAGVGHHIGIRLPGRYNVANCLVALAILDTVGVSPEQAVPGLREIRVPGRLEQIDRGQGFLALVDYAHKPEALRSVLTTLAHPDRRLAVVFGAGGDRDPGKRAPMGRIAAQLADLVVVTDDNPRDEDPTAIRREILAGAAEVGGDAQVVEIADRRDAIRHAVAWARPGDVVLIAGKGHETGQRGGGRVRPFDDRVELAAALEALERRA
T5 sequence (P08684 whole entry): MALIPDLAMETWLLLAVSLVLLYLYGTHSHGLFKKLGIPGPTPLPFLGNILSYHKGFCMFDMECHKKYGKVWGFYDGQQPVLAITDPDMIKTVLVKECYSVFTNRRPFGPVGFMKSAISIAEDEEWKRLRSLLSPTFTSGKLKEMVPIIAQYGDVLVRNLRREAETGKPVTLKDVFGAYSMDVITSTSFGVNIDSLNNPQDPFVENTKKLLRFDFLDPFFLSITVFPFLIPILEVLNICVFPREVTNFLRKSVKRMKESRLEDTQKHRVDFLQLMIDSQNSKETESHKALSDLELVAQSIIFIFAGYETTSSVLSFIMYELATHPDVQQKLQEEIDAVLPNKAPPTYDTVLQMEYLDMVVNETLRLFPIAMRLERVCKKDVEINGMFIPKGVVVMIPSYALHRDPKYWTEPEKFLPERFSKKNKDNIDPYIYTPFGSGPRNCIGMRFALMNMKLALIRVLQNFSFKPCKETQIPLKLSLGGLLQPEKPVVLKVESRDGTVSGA

With `Oc1cc2c(cc1O)C(Cc1ccc3c(c1)OCO3)NCC2` (stereo not drawn) [Compound 20], the MIC in data set [1] (setting [17]) was over 60 µg/mL; in [1] (setting [18]), 334 µM; in data set [4] it was over 100 µg/mL; in data set [5], over 100 µg/mL; in data set [6], over 100 µg/mL; in data set [7], over 100 µg/mL. The compound also came in with an MIC in [8] of over 100 µg/mL. Besides, the “MIC M. bovis BCG” value in data set [1] came to 100 µg/mL (≈ 334 µM). Besides, the IC50 in [2] (setting [19]) was found to be 602 µM; in [2] (setting [20]), 190 µg/mL; in [3] it was 237 µM. Moreover, the “MIC M. aurum” value in data set [4] was over 100 µg/mL. In data set [5], the “MIC M. smegmatis mc^2155” value is over 100 µg/mL.
`CCCCCCCCCC1NCCc2cc(O)c(O)cc21` (stereo not drawn) [Compound 24]: the MIC in data set [1] (setting [17]) was over 60 µg/mL; in data set [1] (setting [18]), 275 µM; in data set [9] (336 h, read-out: MIC M. tuberculosis H37Rv, SPOTi, 2 weeks at 37°C), 80 µg/mL; in [9] (setting [21]), 206 µM; in data set [4] it was 100 µg/mL (≈ 343 µM); in data set [5], 100 µg/mL (≈ 343 µM). Further, the MIC in data set [6], in [7] and in data set [8] was over 100 µg/mL in each case. The “MIC M. bovis BCG” value in data set [1] worked out at 80 µg/mL (≈ 275 µM). Also, the “MIC M. tuberculosis H37Rv” value in [9] (SPOTi, 2 weeks at 37°C) is 60 µg/mL (≈ 206 µM). The IC50 in data set [2] (setting [19]) was determined as 5.5 µM; in data set [2] (setting [20]), 1.6 µg/mL; in data set [3], 186 µM.
On to `COc1ccc(Cl)c2c1C(Cc1ccc3c(c1)OCO3)NCC2` (stereo not drawn) [Compound 36], for which the MIC came out at 40 µg/mL in [1] (setting [17]); 121 µM in [1] (setting [18]); 60 µg/mL in [9] (setting [22]); 181 µM in data set [9] (setting [21]); 60 µg/mL (≈ 181 µM) in [4]; 60 µg/mL (≈ 181 µM) in [5]. Also, the MIC in data set [6], in data set [7] and in [8] was over 100 µg/mL each time. The IC50 came out at 124 µM in data set [2] (setting [19]) and 41 µg/mL in data set [2] (setting [20]).
With `COc1ccc(Cl)c2c1C(Cc1cc3c(cc1Br)OCO3)NCC2` (stereo not drawn) [Compound 39], the MIC in data set [1] (setting [17]) amounted to 40 µg/mL; in data set [1] (setting [18]) it was 97 µM; in data set [9] (setting [22]) it was 40 µg/mL; in [9] (setting [21]), 97 µM. Besides, the IC50 is 178 µM in [2] (setting [19]) and 73 µg/mL in data set [2] (setting [20]). The same compound came in with a cell length in data set [10] of 4.7 ± 1.4 μm.
Turning to `N[C@@H]1CON=C1O` [D-cycloserine, reference compound], in data set [1] (setting [17]), the MIC amounted to 25 µg/mL. The compound further registered a cell length in data set [10] of 4.2 ± 1.0 μm.
As for `NNC(=O)c1ccncc1` [Isoniazid, reference compound], the MIC amounted to 0.1 µg/mL in [1] (setting [17]), 0.73 µM in data set [1] (setting [18]), 0.1 µg/mL in [9] (setting [22]) and 0.73 µM in data set [9] (setting [21]). In [3], this compound displayed an IC50 of over 1000 µM. Moreover, in [3] (negative control, any of the concentrations examined), the Mtb-MurE inhibitory effect entry is reported as “no inhibitory effect”. Moreover, in data set [11], the “GIC50 RAW264.7” value is 3000^a mg/L.
Turning to `CO[C@H]1/C=C/O[C@@]2(C)Oc3c(C)c(O)c4c(O)c(c(/C=N/N5CCN(C)CC5)c(O)c4c3C2=O)NC(=O)/C(C)=C\C=C\[C@H](C)[C@H](O)[C@@H](C)[C@@H](O)[C@@H](C)[C@H](OC(C)=O)[C@@H]1C` [Rifampicin, reference compound], the MIC in data set [1] (setting [17]) was found to be 0.05 µg/mL; in [1] (setting [18]), 0.061 µM; in data set [9] (setting [22]) it was 0.05 µg/mL; in [9] (setting [21]), 0.061 µM; in data set [4], 0.1 µg/mL (≈ 0.122 µM); in data set [5], 0.1 µg/mL (≈ 0.122 µM). For the same compound, the “GIC50 RAW264.7” value in data set [11] is reported as 700^a mg/L.
Turning to `O=c1cc(-c2ccccc2)oc2c1ccc1ccccc12` [α-naphthoflavone, reference compound], the inhibition in data set [12] came out at 100%; in data set [13], 101%; in [14], 100%; in [15], 99.1%; in [16], 101%.
